From patent publication US9428508B2, “2,4-diamino-6,7-dihydro-5H-pyrrolo[2,3]pyrimidine derivatives as FAK/Pyk2 inhibitors” (Centaurus BioPharma Co., Ltd., priority 2011, dated 2016)

Legend:
[1] = target: PYK2 (Homo sapiens (Human), UniProt Q14289); assay: Biochemical assay for PYK2 activity (LANCE TR-FRET, ULight-poly Glu,Ala,Tyr substrate); conditions: GST-tagged PYK2, 40 min reaction
Summary of the method: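 GST-tagged human PYK2 (2 nM working stock) with ULight-poly Glu,Ala,Tyr (1:1:1) peptide (666 nM working stock) and ATP (46.6 μM working stock) in 40 mM Tris pH 7.5, MgCl2, 1 mM DTT, 1 mM CHAPS; 40 min reaction, EDTA quench. Phosphotyrosine read by LANCE Eu-anti-phosphotyrosine (PY20) TR-FRET after 60 min; 12-point 3-fold compound dilutions.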

[2] = target: FAK (Homo sapiens (Human), UniProt Q05397); assay: Biochemical assay for FAK activity (LANCE TR-FRET, ULight-poly Glu,Ala,Tyr substrate); conditions: GST-tagged FAK, 120 min reaction
Sequence of FAK (Q05397 whole entry): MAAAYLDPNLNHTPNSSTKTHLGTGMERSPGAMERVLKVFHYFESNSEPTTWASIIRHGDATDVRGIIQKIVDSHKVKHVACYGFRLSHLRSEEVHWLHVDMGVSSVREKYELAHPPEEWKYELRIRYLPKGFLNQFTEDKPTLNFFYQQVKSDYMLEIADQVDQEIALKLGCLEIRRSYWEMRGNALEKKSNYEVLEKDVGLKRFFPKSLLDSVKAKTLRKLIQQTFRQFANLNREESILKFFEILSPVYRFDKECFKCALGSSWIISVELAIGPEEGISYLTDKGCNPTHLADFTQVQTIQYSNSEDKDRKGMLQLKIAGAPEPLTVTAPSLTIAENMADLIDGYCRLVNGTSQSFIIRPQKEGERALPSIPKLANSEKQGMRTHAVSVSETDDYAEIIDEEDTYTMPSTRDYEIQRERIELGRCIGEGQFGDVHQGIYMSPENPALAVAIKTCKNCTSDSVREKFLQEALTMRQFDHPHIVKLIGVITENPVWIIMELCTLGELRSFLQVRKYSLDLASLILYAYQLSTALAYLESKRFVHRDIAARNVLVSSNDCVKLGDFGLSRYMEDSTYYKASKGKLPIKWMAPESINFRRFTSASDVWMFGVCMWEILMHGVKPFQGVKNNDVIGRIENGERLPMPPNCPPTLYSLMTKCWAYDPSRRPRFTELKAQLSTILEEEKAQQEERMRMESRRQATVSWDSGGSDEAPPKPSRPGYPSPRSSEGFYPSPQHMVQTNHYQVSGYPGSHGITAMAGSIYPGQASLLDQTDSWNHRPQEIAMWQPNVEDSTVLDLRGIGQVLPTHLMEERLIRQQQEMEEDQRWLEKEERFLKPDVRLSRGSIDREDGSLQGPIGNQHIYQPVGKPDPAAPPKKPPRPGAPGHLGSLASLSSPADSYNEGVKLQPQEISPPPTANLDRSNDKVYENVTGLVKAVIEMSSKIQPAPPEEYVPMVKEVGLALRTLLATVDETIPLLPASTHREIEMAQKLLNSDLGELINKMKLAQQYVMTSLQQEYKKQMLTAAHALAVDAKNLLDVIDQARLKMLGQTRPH
Summary of the method: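 GST-tagged FAK (2.5 nM working stock) with ULight-poly Glu,Ala,Tyr (666 nM stock) and ATP (33.3 μM stock) in Tris pH 7.5/MgCl2/DTT/CHAPS buffer with BSA, 120 min; EDTA-quenched. Phosphorylation read by TR-FRET with Eu-anti-phosphotyrosine (PY20) antibody after 60 min. Compounds tested as 12-point 3-fold dilutions.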

Sequence of PYK2 (Q14289 whole entry): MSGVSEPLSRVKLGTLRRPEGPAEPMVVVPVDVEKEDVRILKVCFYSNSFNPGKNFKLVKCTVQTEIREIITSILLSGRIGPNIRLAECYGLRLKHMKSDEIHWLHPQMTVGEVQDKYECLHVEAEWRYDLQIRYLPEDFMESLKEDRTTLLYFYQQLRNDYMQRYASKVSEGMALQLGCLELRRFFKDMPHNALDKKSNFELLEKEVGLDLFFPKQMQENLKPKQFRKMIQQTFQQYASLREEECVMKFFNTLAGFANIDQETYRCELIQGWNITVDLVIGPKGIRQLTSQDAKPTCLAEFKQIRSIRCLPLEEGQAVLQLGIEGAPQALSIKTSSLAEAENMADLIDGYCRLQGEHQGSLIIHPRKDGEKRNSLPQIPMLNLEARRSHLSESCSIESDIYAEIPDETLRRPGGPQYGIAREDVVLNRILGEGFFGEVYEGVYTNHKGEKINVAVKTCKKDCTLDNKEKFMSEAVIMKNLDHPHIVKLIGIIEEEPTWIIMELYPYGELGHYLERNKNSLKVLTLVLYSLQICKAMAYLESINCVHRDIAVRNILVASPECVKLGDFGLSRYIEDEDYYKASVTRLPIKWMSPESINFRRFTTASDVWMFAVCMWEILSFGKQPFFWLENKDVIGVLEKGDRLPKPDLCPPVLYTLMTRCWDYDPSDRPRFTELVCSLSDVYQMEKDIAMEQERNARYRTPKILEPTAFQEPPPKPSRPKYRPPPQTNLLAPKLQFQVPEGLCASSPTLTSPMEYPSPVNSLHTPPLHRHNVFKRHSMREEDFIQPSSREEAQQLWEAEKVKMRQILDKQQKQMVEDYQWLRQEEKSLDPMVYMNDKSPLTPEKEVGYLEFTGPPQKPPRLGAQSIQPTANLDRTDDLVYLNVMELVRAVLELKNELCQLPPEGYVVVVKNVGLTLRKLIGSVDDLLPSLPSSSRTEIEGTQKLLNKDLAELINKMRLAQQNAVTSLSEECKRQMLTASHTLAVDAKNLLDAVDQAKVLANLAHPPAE

| IC50 [1] | IC50 [2] | Structure (SMILES) |
| --- | --- | --- |
| < 20 nM | < 20 nM | COCCNS(=O)(=O)c1ccccc1Nc1nc(Nc2ccc(N3CCOCC3)cc2OC)nc2c1C1(CC1)CN2 [Example 141, 2-(2′-(2-methoxy-4-morpholinophenylamino)-6′,7′-dihydrospiro[cyclopropane-1,5′-pyrrolo[2,3-d]pyrimidine]-4′-ylamino)-N-(2-methoxyethyl)benzenesulfonamide] |
| > 1000 nM | > 1000 nM | COc1cc(N2CCOCC2)ccc1Nc1nc2c(c(Nc3ccccc3S(=O)(=O)NCCO)n1)C1(CC1)CN2 [Example 142, N-(2-hydroxyethyl)-2-(2′-(2-methoxy-4-morpholinophenylamino)-6′,7′-dihydrospiro[cyclopropane-1,5′-pyrrolo[2,3-d]pyrimidine]-4′-ylamino)benzenesulfonamide] |
| < 200 nM | < 100 nM | COc1cc(N2CCOCC2)ccc1Nc1nc2c(c(Nc3ccccc3S(=O)(=O)Nc3ccccc3)n1)C1(CC1)CN2 [Example 143, 2-(2′-(2-methoxy-4-morpholinophenylamino)-6′,7′-dihydrospiro[cyclopropane-1,5′-pyrrolo[2,3-d]pyrimidine]-4′-ylamino)-N-phenylbenzenesulfonamide] |
| < 20 nM | < 20 nM | C=CCNS(=O)(=O)c1ccccc1Nc1nc(Nc2ccc(N3CCOCC3)cc2OC)nc2c1C1(CC1)CN2 [Example 144, N-allyl-2-(2′-(2-methoxy-4-morpholinophenylamino)-6′,7′-dihydrospiro[cyclopropane-1,5′-Pyrrolo[2,3-d]pyrimidine]-4′-ylamino)benzenesulfonamide] |
| < 100 nM | < 100 nM | COc1cc(N2CCOCC2)ccc1Nc1nc2c(c(Nc3ccccc3S(=O)(=O)NC3CCCC3)n1)C1(CC1)CN2 [Example 145, N-cyclopentyl-2-(2′-(2-methoxy-4-morpholinophenylamino)-6′,7′-dihydrospiro[cyclopropane-1,5′-pyrrolo[2,3-d]pyrimidine]-4′-ylamino)benzenesulfonamide] |
| > 1000 nM | > 1000 nM | COc1cc(N2CCOCC2)ccc1Nc1nc2c(c(Nc3ccccc3S(=O)(=O)NC3CC3)n1)C1(CC1)CN2 [Example 146, N-cyclopropyl-2-(2′-(2-methoxy-4-morpholinophenylamino)-6′,7′-dihydrospiro[cyclopropane-1,5′-pyrrolo[2,3-d]pyrimidine]-4′-ylamino)benzenesulfonamide] |
| < 20 nM | < 20 nM | CCCNS(=O)(=O)c1ccccc1Nc1nc(Nc2ccc(N3CCOCC3)cc2OC)nc2c1C1(CC1)CN2 [Example 148, 2-(2′-(2-methoxy-4-morpholinophenylamino)-6′,7′-dihydrospiro[cyclopropane-1,5′-pyrrolo[2,3-d]pyrimidine]-4′-ylamino)-N-propylbenzenesulfonamide] |
| < 500 nM | < 500 nM | COc1cc(N2CCOCC2)ccc1Nc1nc2c(c(Nc3ccccc3S(=O)(=O)NC3CCCCC3)n1)C1(CC1)CN2 [Example 149, N-cyclohexyl-2-(2′-(2-methoxy-4-morpholinophenylamino)-6′,7′-dihydrospiro[cyclopropane-1,5′-pyrrolo[2,3-d]pyrimidine]-4′-ylamino)benzenesulfonamide] |
| < 20 nM | < 20 nM | COc1cc(N2CCOCC2)ccc1Nc1nc2c(c(Nc3ccccc3S(=O)(=O)NC3CCC3)n1)C1(CC1)CN2 [Example 150, N-cyclobutyl-2-(2′-(2-methoxy-4-morpholinophenylamino)-6′,7′-dihydrospiro[cyclopropane-1,5′-pyrrolo[2,3-d]pyrimidine]-4′-ylamino)benzenesulfonamide] |
| < 20 nM | < 20 nM | COc1cc(N2CCOCC2)ccc1Nc1nc2c(c(Nc3ccccc3S(=O)(=O)N(C)C)n1)C1(CC1)CN2 [Example 151, 2-(2′-(2-methoxy-4-morpholinophenylamino)-6′,7′-dihydrospiro[cyclopropane-1,5′-pyrrolo[2,3-d]pyrimidine]-4′-ylamino)-N,N-dimethylbenzenesulfonamide] |
| < 20 nM | < 50 nM | CNC(=O)c1ccccc1Nc1nc(Nc2ccc(N3CCOCC3)cc2OC)nc2c1C1(CC1)CN2 [Example 152, 2-(2′-(2-methoxy-4-morpholinophenylamino)-6′,7′-dihydrospiro[cyclopropane-1,5′-pyrrolo[2,3-d]pyrimidine]-4′-ylamino)-N-methylbenzamide] |
| < 500 nM | < 200 nM | COc1cc(N2CCOCC2)ccc1Nc1nc2c(c(Nc3ccc(F)c(F)c3)n1)C1(CC1)CN2 [Example 153, N^4′-(3,4-difluorophenyl)-N^2′-(2-methoxy-4-morpholinophenyl)-6′,7′-dihydrospiro[cyclopropane-1,5′-pyrrolo[2,3-d]pyrimidine]-2′,4′-diamine] |
| < 100 nM | < 50 nM | COc1cc(N2CCOCC2)ccc1Nc1nc2c(c(Nc3cccc(C)n3)n1)C1(CC1)CN2 [Example 154, N^2′-(2-methoxy-4-morpholinophenyl)-N^4′-(6-methylpyridin-2-yl)-6′,7′-dihydrospiro[cyclopropane-1,5′-pyrrolo[2,3-d]pyrimidine]-2′,4′-diamine] |
| < 50 nM | < 50 nM | COc1cc(N2CCOCC2)ccc1Nc1nc2c(c(Nc3ccccc3NC(C)=O)n1)C1(CC1)CN2 [Example 155, N-(2-(2′-(2-methoxy-4-morpholinophenylamino)-6′,7′-dihydrospiro[cyclopropane-1,5′-pyrrolo[2,3-d]pyrimidine]-4′-ylamino)phenyl)acetamide] |

More lines, now with the values behind:

| Structure (SMILES) | IC50 [1] | IC50 [2] |
| --- | --- | --- |
| CNC(=O)c1ccccc1Nc1nc(Nc2cc(OC)c(OC)c(OC)c2)nc2c1C(C)(C)CN2 [Example 130, 2-(5,5-dimethyl-2-(3,4,5-trimethoxyphenylamino)-6,7-dihydro-5H-pyrrolo[2,3-d]pyrimidin-4-ylamino)-N-methylbenzamide] | < 200 nM | < 200 nM |
| CNC(=O)c1ccccc1Nc1nc(Nc2cccc3ccoc23)nc2c1C(C)(C)CN2 [Example 131, 2-(2-(benzofuran-7-ylamino)-5,5-dimethyl-6,7-dihydro-5H-pyrrolo[2,3-d]pyrimidin-4-ylamino)-N-methylbenzamide] | < 20 nM | < 20 nM |
| CNC(=O)c1ccccc1Nc1nc(Nc2cc(C)nn2C)nc2c1C(C)(C)CN2 [Example 132, 2-(2-(1,3-dimethyl-1H-pyrazol-5-ylamino)-5,5-dimethyl-6,7-dihydro-5H-pyrrolo[2,3-d]pyrimidin-4-ylamino)-N-methylbenzamide] | < 50 nM | < 20 nM |
| CCN1C(=O)CCCc2c1ccc(Nc1nc3c(c(Nc4ccccc4C(=O)NC)n1)C(C)(C)CN3)c2OC [Example 133, 2-(2-(1-ethyl-6-methoxy-2-oxo-2,3,4,5-tetrahydro-1H-benzo[b]azepin-7-ylamino)-5,5-dimethyl-6,7-dihydro-5H-pyrrolo[2,3-d]pyrimidin-4-ylamino)-N-methylbenzamide] | < 50 nM | < 20 nM |
| CNC(=O)c1ccccc1Nc1nc(Nc2ccc3c(ccn3CCCN3CCOCC3)c2)nc2c1C(C)(C)CN2 [Example 134, 2-(5,5-dimethyl-2-(1-(3-morpholinopropyl)-1H-indol-5-ylamino)-6,7-dihydro-5H-pyrrolo[2,3-d]pyrimidin-4-ylamino)-N-methylbenzamide] | < 200 nM | < 200 nM |
| CNS(=O)(=O)c1ccccc1Nc1nc(Nc2ccc(N3CCOCC3)cc2OC)nc2c1C1(CC1)CN2 [Example 135, 2-(2′-(2-methoxy-4-morpholinophenylamino)-6′,7′-dihydrospiro[cyclopropane-1,5′-pyrrolo[2,3-d]pyrimidine]-4′-ylamino)-N-methylbenzenesulfonamide] | < 20 nM | < 50 nM |
| COc1cc(N2CCOCC2)ccc1Nc1nc2c(c(Nc3ccccc3S(=O)(=O)NC(C)(C)C)n1)C1(CC1)CN2 [Example 136, N-tert-butyl-2-(2′-(2-methoxy-4-morpholinophenylamino)-6′,7′-dihydrospiro[cyclopropane-1,5′-pyrrolo[2,3-d]pyrimidine]-4′-ylamino)benzenesulfonamide] | < 20 nM | < 20 nM |
| COc1cc(N2CCOCC2)ccc1Nc1nc2c(c(Nc3ccccc3S(=O)(=O)NCC(C)C)n1)C1(CC1)CN2 [Example 137, N-isobutyl-2-(2′-(2-methoxy-4-morpholinophenylamino)-6′,7′-dihydrospiro[cyclopropane-1,5′-pyrrolo[2,3-d]pyrimidine]-4′-ylamino)benzenesulfonamide] | < 20 nM | < 20 nM |
| COc1cc(N2CCOCC2)ccc1Nc1nc2c(c(Nc3ccccc3S(=O)(=O)NC(C)C)n1)C1(CC1)CN2 [Example 138, N-isopropyl-2-(2′-(2-methoxy-4-morpholinophenylamino)-6′,7′-dihydrospiro[cyclopropane-1,5′-pyrrolo[2,3-d]pyrimidine]-4′-ylamino)benzenesulfonamide] | < 20 nM | < 20 nM |
| CCNS(=O)(=O)c1ccccc1Nc1nc(Nc2ccc(N3CCOCC3)cc2OC)nc2c1C1(CC1)CN2 [Example 139, N-ethyl-2-(2′-(2-methoxy-4-morpholinophenylamino)-6′,7′-dihydrospiro[cyclopropane-1,5′-pyrrolo[2,3-d]pyrimidine]-4′-ylamino)benzenesulfonamide] | < 20 nM | < 20 nM |
| COc1cc(N2CCOCC2)ccc1Nc1nc2c(c(Nc3ccccc3S(=O)(=O)NCC3CC3)n1)C1(CC1)CN2 [Example 140, N-(cyclopropylmethyl)-2-(2′-(2-methoxy-4-morpholinophenylamino)-6′,7′-dihydrospiro[cyclopropane-1,5′-pyrrolo[2,3-d]pyrimidine]-4′-ylamino)benzenesulfonamide] | < 20 nM | < 20 nM |
